{
  "source": "patent US11364242B2",
  "about": "“Treatment agents for inhibiting HIV and cancer in HIV infected patients” (UNIVERSITY OF MARYLAND, BALTIMORE, priority 2015, dated 2022)",
  "key": {"[1]": {"tested_on": "multidrug-resistant HIV molecular clone NL4329129-2", "test": "PBL infectivity assay, multidrug resistant clone", "type": "cell-based", "conditions": "Human immunodeficiency virus 1, 168 h", "procedure": "FIG. 2A-2B are bar graphs that illustrate how INK128 inhibits replication of multidrug resistant HIV molecular clone NL4329129-2. Activated PBLs were infected for 2 hours using a MOI of 0.001. Infected cells were cultured in IL-2 medium and the indicated concentrations of INK128. On day 7, virus production was measured by p24 ELISA in the culture supernatants (FIG. 2A), and cell viability was measured by MTT (FIG. 2B) according to an embodiment.\nPBLs were isolated from buffy coats of HIV seronegative donors (New York Blood Center). The laboratory-adapted strains HIV BaL and HIV HXB2; primary isolates HIV 92BR020, 92UG031, 93BR029, and 93UG082; and multidrug resistant molecular clone NL4329129-2 were obtained from the NIH AIDS Repository. […] Proliferation of PBLs was measured by the MTT kit (Roche), following the manufacturer's directions. […]\nPBLs were separated from buffy coats by density centrifugation over Ficoll-Hypaque (Sigma™), and activated by culture in the presence of 1 μg/mL anti-human CD3 antibody (clone x35, Fisher Scientific™) and 2 μg/mL anti-human CD28 antibody (Clone CD28.6, eBioscience™) for 3 days. […] On day 7, viral replication was measured by p24 ELISA (Coulter) in culture supernatants and cell viability was measured by MTT assays.\nEC50 values were determined by variable slope nonlinear regression analysis. […]"}, "HIV BaL": {"tested_on": "HIV BaL", "test": "HIV BaL infection of NSG mice reconstituted with human PBLs"}, "[2]": {"tested_on": "full-length unspliced HIV mRNA", "test": "RT-PCR of unspliced HIV mRNA in U1 cells", "type": "cell-based", "conditions": "10 nM PMA, 2 days", "procedure": "FIG. 6 is a bar graph that depicts how INK128 inhibits HIV transcription in U1 cells. U1 cells were cultured in the presence of 10 nM PMA and the indicated concentrations of INK128. After 2 days, cells were collected, mRNA isolated, quantified, reverse transcribed and amplified by real time PCR using unspliced HIV cDNA primer pair US.1a/US.2a and housekeeping [beta]-actin primers. For quantification, standard curves for unspliced HIV cDNA and [beta]-actin sequences were generated by performing 10-fold serial dilutions of mRNA isolated from PBLs acutely infected with HIV BaL. PCR amplification was performed using Quantitect® SYBR Green PCR Kit in a LightCycler®. Negative controls consisted of mixture reactions without the reverse transcription step according to an embodiment.\nTotal cellular RNA was isolated using the Qiagen™ RNA Isolation Kit (Qiagen™) RNA was then treated with DNase I, Amplification Grade (Invitrogen™), and reverse transcribed with SuperScript III First-Strand Synthesis Supermix™ (Invitrogen™) using hexamer primers. An aliquot of the cDNA was used as a template for PCR amplification of full length, unspliced HIV cDNA using primers US.1a and US.2a, and another aliquot for amplification with primer pairs specific for housekeeping [beta]-actin sequences (63).\nThe effects of INK128 on activation of HIV in the chronically HIV-infected U1 cell line were examined. […]"}, "HIV-1 1638": {"tested_on": "HIV-1 1638", "test": "PBL infectivity assay, primary isolate", "type": "cell-based", "conditions": "Human immunodeficiency virus 1, PBMC; X4 primary isolate, PBMCs, three donors; read-out: Geometric mean INK128 EC50, nM (95% CI)", "from_the_text": "(§1) PBLs were isolated from buffy coats of HIV seronegative donors (New York Blood Center). The laboratory-adapted strains HIV BaL and HIV HXB2; primary isolates HIV 92BR020, 92UG031, 93BR029, and 93UG082; and multidrug resistant molecular clone NL4329129-2 were obtained from the NIH AIDS Repository. Primary isolate 2044 was from Paul Clapham (Windeyer Institute), and 1633 and 1638 from the Institute of Human Virology (University of Maryland School of Medicine). Maraviroc, efavirenz, raltegravir, and indinavir were from the NIH AIDS Repository. INK128 was purchased from ApexBio. Proliferation of PBLs was measured by the MTT kit (Roche), following the manufacturer's directions. PBL infectivity assays were performed as described herein.\n(§2) PBLs were separated from buffy coats by density centrifugation over Ficoll-Hypaque (Sigma™), and activated by culture in the presence of 1 μg/mL anti-human CD3 antibody (clone x35, Fisher Scientific™) and 2 μg/mL anti-human CD28 antibody (Clone CD28.6, eBioscience™) for 3 days. Activated cells were infected by incubation with virus at a multiplicity of infection (MOI) of 0.001 for 2 hours. Infected cells were washed three times with PBS and cultured in 5% CO2 at 37° C., in RPMI/10% FBS supplemented with 100 units/mL IL-2 (Roche™) and antiviral drugs, in 96-well flat-bottom plates at a density of […] PBLs per 200 μL. Following 3 d of culture, half of the medium was replaced with fresh medium containing IL-2 and antiviral drugs. On day 7, viral replication was measured by p24 ELISA (Coulter) in culture supernatants and cell viability was measured by MTT assays.\n(§3) EC50 values were determined by variable slope nonlinear regression analysis. Unpaired two-tailed t tests were used to check for statistical significant differences between INK128 EC50 values of R5 HIV versus X4 HIV in infectivity assays. Nonparametric Mann-Whitney tests were used to compare each treatment group and control group in animal studies. Statistical analyses were performed using GraphPad Prism™ (version 4.0). P<0.05 was considered significant.\n(§4) The antiviral activity of INK128 was investigated in PBLs infected with CCR5 (R5)-tropic and CXCR4 (X4)-tropic HIV reference strains BaL and HXB2, respectively."}, "HIV-1 1633": {"tested_on": "HIV-1 1633", "test": "PBL infectivity assay, primary isolate", "type": "cell-based", "conditions": "Human immunodeficiency virus 1, PBMC; X4 primary isolate, PBMCs, three donors; read-out: Geometric mean INK128 EC50, nM (95% CI)", "from_the_text": "as §1, §2, §3, §4"}, "HIV-1 2044": {"tested_on": "HIV-1 2044", "test": "PBL infectivity assay, primary isolate", "type": "cell-based", "conditions": "Human immunodeficiency virus 1, PBMC; X4 primary isolate, PBMCs, three donors; read-out: Geometric mean INK128 EC50, nM (95% CI)", "from_the_text": "as §1, §2, §3, §4"}, "HIV-1 92BR020": {"tested_on": "HIV-1 92BR020", "test": "PBL infectivity assay, primary isolate", "type": "cell-based", "conditions": "Human immunodeficiency virus 1, PBMC; R5 primary isolate, PBMCs, three donors; read-out: Geometric mean INK128 EC50, nM (95% CI)", "from_the_text": "as §1, §2, §3, §4"}, "HIV-1 93UG082": {"tested_on": "HIV-1 93UG082", "test": "PBL infectivity assay, primary isolate", "type": "cell-based", "conditions": "Human immunodeficiency virus 1, PBMC; R5 primary isolate, PBMCs, three donors; read-out: Geometric mean INK128 EC50, nM (95% CI)", "from_the_text": "as §1, §2, §3, §4"}, "HIV-1 93BR029": {"tested_on": "HIV-1 93BR029", "test": "PBL infectivity assay, primary isolate", "type": "cell-based", "conditions": "Human immunodeficiency virus 1, PBMC; R5 primary isolate, PBMCs, three donors; read-out: Geometric mean INK128 EC50, nM (95% CI)", "from_the_text": "as §1, §2, §3, §4"}, "HIV-1 92UG031": {"tested_on": "HIV-1 92UG031", "test": "PBL infectivity assay, primary isolate", "type": "cell-based", "conditions": "Human immunodeficiency virus 1, PBMC; R5 primary isolate, PBMCs, three donors; read-out: Geometric mean INK128 EC50, nM (95% CI)", "from_the_text": "as §1, §2, §3, §4"}},
  "data": [
    {"compound": "CC(C)n1nc(-c2ccc3oc(N)nc3c2)c2c(N)ncnc21", "note": "[INK128, 5-(4-amino-1-propan-2-ylpyrazolo[3,4-d]pyrimidin-3-yl)-1,3-benzoxazol-2-amine]", "values": [
      {"measurement": "EC50", "setting": "[1]", "value": 10.9, "unit": "nM"},
      {"measurement": "mean CD4/CD8 cell ratio", "setting": "HIV BaL; day 14, 1 mg/kg/day i.p.", "value": 0.11},
      {"measurement": "mean CD4/CD8 cell ratio", "setting": "HIV BaL; day 14, 3 mg/kg/day i.p.", "value": 0.18},
      {"measurement": "mean CD4/CD8 cell ratio", "setting": "HIV BaL; day 14, 5 mg/kg/day i.p.", "value": 0.76},
      {"measurement": "synthesis of full-length unspliced HIV mRNA", "setting": "[2]", "value": "inhibits synthesis"},
      {"measurement": "EC50", "setting": "HIV-1 1638", "value": 21.2, "unit": "nM"},
      {"measurement": "EC50", "setting": "HIV-1 1633", "value": 17.5, "unit": "nM"},
      {"measurement": "EC50", "setting": "HIV-1 2044", "value": 36.7, "unit": "nM"},
      {"measurement": "EC50", "setting": "HIV-1 92BR020", "value": 1.03, "unit": "nM"},
      {"measurement": "EC50", "setting": "HIV-1 93UG082", "value": 2.89, "unit": "nM"},
      {"measurement": "EC50", "setting": "HIV-1 93BR029", "value": 4.73, "unit": "nM"},
      {"measurement": "EC50", "setting": "HIV-1 92UG031", "value": 10.2, "unit": "nM"}
    ]}
  ]
}
